Entries after “also recorded” stand apart in the source; their conditions may differ.
Key:
[1] = system: RTV-1058 clone 4 (RT K103N, Y188L); assay: Phenotypic susceptibility assay, RTV-1058 clone 4; assay type: cell-based, HIV-1
Protocol: (§1) Transfections were performed using a calcium-phosphate precipitation procedure. […] Cell lysates were assayed for luciferase activity (FIG. 3). […] The drug inhibition curves are shown in (FIG. 3).

[2] = system: patient 780 virus (RT K103N, P225H); assay: Phenotypic susceptibility assay, patient 780 (FIG. 8B); assay type: cell-based, HIV
Protocol: Phenotypic Drug Susceptibility and Resistance Profile: Patients 780. This is a second example of the third pattern of NNRTI susceptibility/resistance.
as §1

[3] = system: RTV-1057 patient virus (RT A98G, Y181C); assay: Phenotypic susceptibility assay, RTV-1057 (patient 98-1057); assay type: cell-based, HIV-1
Protocol: as §1

[4] = system: RTV-1058 clone 5 (RT L100I, K103N); assay: Phenotypic susceptibility assay, RTV-1058 clone 5; assay type: cell-based, HIV-1
Protocol: as §1

[5] = system: HIV-1 reverse transcriptase P225H plus K103N, Y181C or both; assay: Phenotypic susceptibility assay, P225H with K103N, Y181C or K103N+Y181C; assay type: cell-based; conditions: P225H added to K103N, Y181C or K103N+Y181C versus corresponding RTV lacking P225H
Protocol: as §1
Resistance test vectors were constructed containing the P225H mutation alone and in combination with other known drug resistance mutations (K103N, Y181C) known to modulate the HIV susceptibility to NNRTIs. […] (Sakar G and Sommar S S (1994) Biotechniques 8(4), 404-407). […] The P225H mutation was also introduced into a RTV containing additional mutations at K103N, Y181C or both (K103N+Y181C).

[6] = system: RTV-644 patient virus (RT K101E, G190S); assay: Phenotypic susceptibility assay, RTV-644 (patient 97-644 / 98-644); assay type: cell-based, HIV-1; conditions: for decrease in susceptibility: RTV-644 patient virus; for change in susceptibility / resistance: RTV-644 patient virus compared to reference virus
Protocol: (§2) Resistance tests were carried out with resistance test vectors using two host cell types. Resistance test vector viral particles were produced by a first host cell (the resistance test vector host cell) that was prepared by transfecting a packaging host cell with the resistance test vector and the packaging expression vector. The resistance test vector viral particles were then used to infect a second host cell (the target host cell) in which the expression of the indicator gene is measured.
(§3) The resistance test vectors containing a functional luciferase gene cassette were constructed and host cells were transfected with the resistance test vector DNA. The resistant test vectors contained patient-derived reverse transcriptase and protease sequences that were either susceptible or resistant to the antiretroviral agents, such as nucleoside reverse transcriptase inhibitors, non-nucleoside reverse transcriptase inhibitors and protease inhibitors. The resistance test vector viral particles produced by transfecting the resistance test vector DNA into host cells, either in the presence or absence of protease inhibitors, were used to infect target host cells grown either in the absence of NRTI or NNRTI or in the presence of increasing concentrations of the drug. The amount of luciferase activity produced in infected target host cells in the presence of drug was compared to the amount of luciferase produced in infected target host cells in the absence of drug. Drug resistance was measured as the amount of drug required to inhibit by 50% the luciferase activity detected in the absence of drug (inhibitory concentration 50%, IC50). The IC50 values were determined by plotting percent drug inhibition vs. log10 drug concentration.
Host cells were seeded in 10-cm-diameter dishes and were transfected several days after plating with resistance test vector plasmid DNA and the envelope expression vector. Transfections were performed using a calcium-phosphate precipitation procedure. The cell culture media containing the DNA precipitate was replaced with fresh medium, from one to 24 hours, after transfection. […] HIV capsid protein (p24) levels in the harvested cell culture media were determined by an EIA method as described by the manufacturer (SIAC; Frederick, Md.). […] The inhibitory effect of the drug was determined using the following equation: % luciferase inhibition=1-(RLUluc[drug]÷RLUluc)×100 where RLUluc [drug] is the relative light unit of luciferase activity in infected cells in the presence of drug and RLUluc is the Relative Light Unit of luciferase activity in infected cells in the absence of drug. […]

[7] = system: RTV-757 patient virus (RT V106A, V108I, V189L); assay: Phenotypic susceptibility assay, RTV-757 (patient 98-757); assay type: cell-based, HIV-1; conditions: RTV-757 patient virus (same patient as RTV-1033, later time point)
Protocol: as §1

[8] = system: Tyr181Cys (Y181C) mutation of HIV RT; conditions: cited from earlier work
[9] = system: HIV-1 reverse transcriptase L100I + K103N + Y188L (L100I-K103N-Y188L-RTV); assay: Phenotypic susceptibility assay, site directed mutant L100I-K103N-Y188L-RTV; assay type: cell-based; conditions: >1 loss of susceptibility
Protocol: as §2
(§4) The resistance test vectors containing a functional luciferase gene cassette were constructed and host cells were transfected with the resistance test vector DNA. The resistant test vectors contained patient-derived reverse transcriptase and protease sequences that were either susceptible or resistant to the antiretroviral agents, such as nucleoside reverse transcriptase inhibitors, non-nucleoside reverse transcriptase inhibitors and protease inhibitors. […] The IC50 values were determined by plotting percent drug inhibition vs. log10 drug concentration.
(§5) Host cells were seeded in 10-cm-diameter dishes and were transfected several days after plating with resistance test vector plasmid DNA and the envelope expression vector. […] HIV capsid protein (p24) levels in the harvested cell culture media were determined by an EIA method as described by the manufacturer (SIAC; Frederick, Md.). […]

[10] = system: HIV-1 reverse transcriptase K103N + Y188L (K103N-Y188L-RTV); assay: Phenotypic susceptibility assay, site directed mutant K103N-Y188L-RTV; assay type: cell-based; conditions: >1 loss of susceptibility
Protocol: as §2, §4, §5

[11] = system: RTV-964 patient virus (RT Y181I); assay: Phenotypic susceptibility assay, RTV-964 (patient 98-964); assay type: cell-based, HIV-1
Protocol: as §1

[12] = system: HIV-1 reverse transcriptase L100I + K103N (L100I-K103N-RTV); assay: Phenotypic susceptibility assay, site directed mutant L100I-K103N-RTV; assay type: cell-based; conditions: >1 loss of susceptibility
Protocol: as §2, §4, §5

[13] = system: HIV-1 reverse transcriptase Y188H (Y188H-RTV); conditions: >1 loss of susceptibility
Protocol: as §2, §4, §5

[14] = system: RTV-268 patient virus (RT P236L with M41L, D67N, M184V, L210W, T215Y, K219Q); assay: Phenotypic susceptibility assay, RTV-268 (patient 97-268); assay type: cell-based, HIV-1; conditions: RTV-268 patient virus compared to reference virus
Protocol: as §2, §3
Host cells were seeded in 10-cm-diameter dishes and were transfected several days after plating with resistance test vector plasmid DNA and the envelope expression vector. Transfections were performed using a calcium-phosphate precipitation procedure. The cell culture media containing the DNA precipitate was replaced with fresh medium, from one to 24 hours, after transfection. Cell culture media containing resistance test vector viral particles was harvested one to four days after transfection and was passed through a […] filter before being stored at −80° C. HIV capsid protein (p24) levels in the harvested cell culture media were determined by an EIA method as described by the manufacturer (SIAC; Frederick, Md.). Before infection, target cells (293 and 293/T) were plated in cell culture media. Control infections were performed using cell culture media from mock transfections (no DNA) or transfections containing the resistance test vector plasmid DNA without the envelope expression plasmid. One to three or more days after infection the media was removed and cell lysis buffer (Promega) was added to each well. […] The inhibitory effect of the drug was determined using the following equation: % luciferase inhibition=1-(RLUluc[drug]÷RLUluc)×100 where RLUluc [drug] is the relative light unit of luciferase activity in infected cells in the presence of drug and RLUluc is the Relative Light Unit of luciferase activity in infected cells in the absence of drug. IC50 values were obtained from the sigmoidal curves that were generated from the data by plotting the percent inhibition of luciferase activity vs. the log10 drug concentration.
A resistance test vector was constructed as described in Example 1 from a patient sample designated 97-268. […] Isolation of viral RNA and RT/PCR was used to generate a patient derived segment that comprised viral sequences coding for all of PR and amino acids 1-313 of RT. The patient derived segment was inserted into a indicator gene viral vector to generate a resistance test vector designated RTV-268.

CC(C)Nc1cccnc1N1CCN(C(=O)c2cc3cc(NS(C)(=O)=O)ccc3[nH]2)CC1 [delavirdine]
loss of susceptibility [1]: 85 fold | change in susceptibility [2]: reduced susceptibility | decrease in susceptibility [3]: 35 fold | loss of susceptibility [4]: 250 fold | change in susceptibility [5]: more susceptible to inhibition; also recorded: increase; also recorded: decreases the amount of delavirdine resistance | decrease in susceptibility [6]: 2.5 fold | change in susceptibility / resistance [6]: little or no resistance | decrease in susceptibility [7]: 10 fold

Cc1ccnc2c1NC(=O)c1cccnc1N2C1CC1 [nevirapine]
reduction in sensitivity [8]: 100 fold | fold change in susceptibility compared to wild type control RTV [9]: greater than 800 fold | loss of susceptibility [1]: greater than 800 fold | change in susceptibility [2]: reduced susceptibility | decrease in susceptibility [3]: 610 fold | loss of susceptibility [4]: 120 fold | fold change in susceptibility compared to wild type control RTV [10]: greater than 800 fold | change in susceptibility [5]: did not significantly change; also recorded: little or no change; also recorded: does not decrease the amount of nevirapine resistance | decrease in susceptibility [6]: 600 fold | change in susceptibility / resistance [6]: resistant; also recorded: large reduction in susceptibility | decrease in susceptibility [11]: 750 fold | fold change in susceptibility compared to wild type control RTV [12]: 70 fold | fold change in susceptibility compared to wild type control RTV [13]: 3.5 fold | decrease in susceptibility [7]: greater than 800 fold | change in susceptibility / resistance [14]: no change; also recorded: the same as wild type

Source: patent publication US20050130134A1, “Means and methods for monitoring non-nucleoside reverse transcriptase inhibitor antiretroviral therapy and guiding therapeutic decisions in the treatment HIV-AIDS” (ViroLogic, Inc., priority 2000, published 2005)
